# Assay results taken from PubChem BioAssay AID256 (DTP/NCI, 2004).
# Several values for one entry are separate records, joined by “and”; a condition that tells them apart may be missing. Identical values can stand only once. Inconclusive results and toxic doses are left out.
# Tested on: CD2F1 mice, L1210 leukemia ip, survival T/C
# Assay: NCI In Vivo Anticancer Drug Screen. Data for tumor model L1210 Leukemia (intraperitoneal) in CD2F1 (CDF1) mice
# Conditions: higher = longer survival
# Procedure, shortened: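 Tumor-bearing mice (transplanted tumor) were split into treated and vehicle control groups, and the measured endpoint of each treated group was divided by that of its vehicle controls.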
# [1] = endpoint: mean survival time, dose: 100.0 mg/kg/injection, schedule: Q01DX009 (ip), vehicle: saline with Tween-80
# [2] = endpoint: mean survival time, dose: 100.0 mg/kg/injection, schedule: Q04DX003 (ip), vehicle: saline with Tween-80
# [3] = endpoint: mean survival time, dose: 200.0 mg/kg/injection, schedule: Q01DX009 (ip), vehicle: saline with Tween-80
# [4] = endpoint: mean survival time, dose: 200.0 mg/kg/injection, schedule: Q04DX003 (ip), vehicle: saline with Tween-80
# [5] = endpoint: mean survival time, dose: 400.0 mg/kg/injection, schedule: Q01DX009 (ip), vehicle: saline with Tween-80
# [6] = endpoint: mean survival time, dose: 400.0 mg/kg/injection, schedule: Q04DX003 (ip), vehicle: saline with Tween-80
# [7] = endpoint: mean survival time, dose: 50.0 mg/kg/injection, schedule: Q01DX009 (ip), vehicle: saline
# [8] = endpoint: mean survival time, dose: 100.0 mg/kg/injection, schedule: Q01DX001 (ip), vehicle: saline with Tween-80
compound,measurement,setting,value
N#CCCN1CCS(=O)(=O)C1=O,T/C,"endpoint: mean survival time, dose: 19.0 mg/kg/injection, schedule: Q01DX001 (ip), vehicle: other",107 % of control
same,T/C,"endpoint: mean survival time, dose: 38.0 mg/kg/injection, schedule: Q01DX001 (ip), vehicle: other",115 % of control
same,T/C,"endpoint: mean survival time, dose: 75.0 mg/kg/injection, schedule: Q01DX001 (ip), vehicle: other",112 % of control
same,T/C,"endpoint: mean survival time, dose: 150.0 mg/kg/injection, schedule: Q01DX001 (ip), vehicle: other",117 % of control and 109 % of control
C=CCNC(=O)/C(=C\c1ccccc1)NC(C)=O,T/C,[1],96 % of control
same,T/C,[2],98 % of control
same,T/C,[3],98 % of control
same,T/C,[4],100 % of control
same,T/C,[5],95 % of control
same,T/C,[6],100 % of control
O=C(O)c1cccc2c1C(=O)c1ccccc1C2=O,T/C,"endpoint: mean survival time, dose: 100.0 mg/kg/injection, schedule: Q04DX003 (ip), vehicle: Klucel (hydroxypropylcellulose) (HPC)",117 % of control
same,T/C,"endpoint: mean survival time, dose: 200.0 mg/kg/injection, schedule: Q04DX003 (ip), vehicle: Klucel (hydroxypropylcellulose) (HPC)",101 % of control
same,T/C,"endpoint: mean survival time, dose: 400.0 mg/kg/injection, schedule: Q04DX003 (ip), vehicle: Klucel (hydroxypropylcellulose) (HPC)",109 % of control
CCCCNC(=O)Oc1ccc(OCc2ccccc2)cc1,T/C,[1],96 % of control
same,T/C,[2],94 % of control
same,T/C,[3],89 % of control
same,T/C,[4],91 % of control
same,T/C,[5],92 % of control
CCN(CC)CC[n+]1ccc2c(C)c3[nH]c4ccc(O)cc4c3c(C)c2c1,T/C,"endpoint: mean survival time, dose: 3.12 mg/kg/injection, schedule: Q01DX009 (ip), vehicle: suspension in saline",179 % of control
same,T/C,"endpoint: mean survival time, dose: 6.25 mg/kg/injection, schedule: Q01DX009 (ip), vehicle: suspension in saline",228 % of control
same,T/C,"endpoint: mean survival time, dose: 12.5 mg/kg/injection, schedule: Q01DX009 (ip), vehicle: suspension in saline",170 % of control and 262 % of control
same,T/C,"endpoint: mean survival time, dose: 25.0 mg/kg/injection, schedule: Q01DX009 (ip), vehicle: suspension in saline",116 % of control and 111 % of control
same,T/C,[7],102 % of control
same,T/C,"endpoint: mean survival time, dose: 50.0 mg/kg/injection, schedule: Q01DX009 (ip), vehicle: suspension in saline",92 % of control
NNC(=S)NC1CC2C=CC1C2 (stereo unspecified),T/C,"endpoint: mean survival time, dose: 6.25 mg/kg/injection, schedule: Q04DX003 (ip), vehicle: saline with Tween-80",95 % of control
same,T/C,"endpoint: mean survival time, dose: 12.5 mg/kg/injection, schedule: Q04DX003 (ip), vehicle: saline with Tween-80",95 % of control
same,T/C,"endpoint: mean survival time, dose: 25.0 mg/kg/injection, schedule: Q04DX003 (ip), vehicle: saline with Tween-80",97 % of control
CCOC(=O)c1c(-c2ccccc2)csc1NC(=O)CBr,T/C,"endpoint: mean survival time, dose: 75.0 mg/kg/injection, schedule: Q01DX001 (ip), vehicle: saline",106 % of control
same,T/C,"endpoint: mean survival time, dose: 150.0 mg/kg/injection, schedule: Q01DX001 (ip), vehicle: saline",101 % of control
same,T/C,"endpoint: mean survival time, dose: 300.0 mg/kg/injection, schedule: Q01DX001 (ip), vehicle: saline",98 % of control
CCCCC(CC)C(=O)[O][Pb]([CH3])([CH3])[CH3] (stereo unspecified),T/C,"endpoint: mean survival time, dose: 5.0 mg/kg/injection, schedule: Q04DX003 (ip), vehicle: saline with Tween-80",97 % of control
same,T/C,"endpoint: mean survival time, dose: 10.0 mg/kg/injection, schedule: Q04DX003 (ip), vehicle: saline with Tween-80",98 % of control
CNC(=S)NNc1ccccc1Cl,T/C,"endpoint: mean survival time, dose: 12.5 mg/kg/injection, schedule: Q01DX009 (ip), vehicle: other",98 % of control
same,T/C,"endpoint: mean survival time, dose: 25.0 mg/kg/injection, schedule: Q01DX009 (ip), vehicle: other",94 % of control
same,T/C,"endpoint: mean survival time, dose: 50.0 mg/kg/injection, schedule: Q01DX009 (ip), vehicle: other",88 % of control
same,T/C,"endpoint: mean survival time, dose: 100.0 mg/kg/injection, schedule: Q01DX009 (ip), vehicle: other",104 % of control
same,T/C,"endpoint: mean survival time, dose: 200.0 mg/kg/injection, schedule: Q01DX009 (ip), vehicle: other",104 % of control
Cc1ccc(S(=O)(=O)N(CCCc2c(C)nc(N)nc2Nc2ccccc2)c2ccccc2)cc1,T/C,[8],92 % of control
CCCCNC(C)(C)C(S)c1ccc(Cl)cc1 (stereo unspecified),T/C,"endpoint: mean survival time, dose: 12.0 mg/kg/injection, schedule: Q04DX003 (ip), vehicle: other",96 % of control
same,T/C,"endpoint: mean survival time, dose: 25.0 mg/kg/injection, schedule: Q04DX003 (ip), vehicle: other",105 % of control
same,T/C,"endpoint: mean survival time, dose: 50.0 mg/kg/injection, schedule: Q04DX003 (ip), vehicle: other",94 % of control
O=c1c([N+](=O)[O-])cn(O)cc1[N+](=O)[O-],T/C,"endpoint: mean survival time, dose: 100.0 mg/kg/injection, schedule: Q01DX001 (ip), vehicle: alkali diluted with saline",100 % of control
same,T/C,"endpoint: mean survival time, dose: 200.0 mg/kg/injection, schedule: Q01DX001 (ip), vehicle: alkali diluted with saline",94 % of control
same,T/C,"endpoint: mean survival time, dose: 400.0 mg/kg/injection, schedule: Q01DX001 (ip), vehicle: alkali diluted with saline",100 % of control
CNC(=S)NC1CCCCC1,T/C,[2],97 % of control
same,T/C,[4],100 % of control
same,T/C,[6],89 % of control
CCCCCCCCCC/C(C)=N/Nc1ccc([N+](=O)[O-])cc1[N+](=O)[O-],T/C,[8],94 % of control
same,T/C,"endpoint: mean survival time, dose: 200.0 mg/kg/injection, schedule: Q01DX001 (ip), vehicle: saline with Tween-80",89 % of control
same,T/C,"endpoint: mean survival time, dose: 400.0 mg/kg/injection, schedule: Q01DX001 (ip), vehicle: saline with Tween-80",93 % of control
Nc1ncnc2nc(-c3ccccc3)[nH]c12,T/C,[2],100 % of control
same,T/C,[4],99 % of control
same,T/C,[6],99 % of control
COc1ccc(CCNC(=O)NC(C)(C)C)cc1OC,T/C,[1],96 % of control
same,T/C,[3],100 % of control
same,T/C,[5],93 % of control
Cc1ccc(NC(=O)CI)cc1,T/C,"endpoint: mean survival time, dose: 100.0 mg/kg/injection, schedule: Q04DX002 (ip), vehicle: other",102 % of control
CC(=O)OC1C2C=CC1C1CC21 (stereo unspecified),T/C,"endpoint: mean survival time, dose: 100.0 mg/kg/injection, schedule: Q01DX001 (ip), vehicle: saline",96 % of control
same,T/C,"endpoint: mean survival time, dose: 200.0 mg/kg/injection, schedule: Q01DX001 (ip), vehicle: saline",100 % of control
same,T/C,"endpoint: mean survival time, dose: 400.0 mg/kg/injection, schedule: Q01DX001 (ip), vehicle: saline",98 % of control
C=C(Br)CNC(=O)OC,T/C,"endpoint: mean survival time, dose: 12.5 mg/kg/injection, schedule: Q01DX009 (ip), vehicle: saline",102 % of control
same,T/C,"endpoint: mean survival time, dose: 25.0 mg/kg/injection, schedule: Q01DX009 (ip), vehicle: saline",104 % of control
same,T/C,[7],112 % of control
same,T/C,[2],96 % of control
Nc1cc(Nc2ccc(Cl)cc2)c2nc(-c3ccc(Cl)cc3)c(-c3ccc(Cl)cc3)nc2n1,T/C,[2],100 % of control
same,T/C,[4],107 % of control
same,T/C,[6],107 % of control
CO[C@@]12[C@@H]3N[C@@H]3CN1C1=C(C(=O)C(N(C)c3ccc(O)cc3)=C(C)C1=O)[C@@H]2COC(N)=O,T/C,"endpoint: median survival time, dose: 3.0 mg/kg/injection, schedule: Q01DX001 (ip), vehicle: distilled water + Tween-80",100 % of control
same,T/C,"endpoint: median survival time, dose: 6.0 mg/kg/injection, schedule: Q01DX001 (ip), vehicle: distilled water + Tween-80",121 % of control
same,T/C,"endpoint: median survival time, dose: 12.0 mg/kg/injection, schedule: Q01DX001 (ip), vehicle: distilled water + Tween-80",117 % of control and 102 % of control
same,T/C,"endpoint: median survival time, dose: 24.0 mg/kg/injection, schedule: Q01DX001 (ip), vehicle: distilled water + Tween-80",113 % of control
CC(C)n1cnc2c(=S)nc[nH]c21,T/C,"endpoint: mean survival time, dose: 41.0 mg/kg/injection, schedule: Q01DX Z (ip), vehicle: saline",121 % of control
same,T/C,"endpoint: mean survival time, dose: 94.0 mg/kg/injection, schedule: Q01DX Z (ip), vehicle: saline",171 % of control
c1csc(C[N+]23CN4CN(CN(C4)C2)C3)c1,T/C,"endpoint: median survival time, dose: 12.5 mg/kg/injection, schedule: Q01DX009 (ip), vehicle: saline",103 % of control
same,T/C,"endpoint: median survival time, dose: 25.0 mg/kg/injection, schedule: Q01DX009 (ip), vehicle: saline",107 % of control
same,T/C,"endpoint: median survival time, dose: 50.0 mg/kg/injection, schedule: Q01DX009 (ip), vehicle: saline",107 % of control
same,T/C,"endpoint: median survival time, dose: 100.0 mg/kg/injection, schedule: Q01DX009 (ip), vehicle: saline",108 % of control
same,T/C,"endpoint: median survival time, dose: 200.0 mg/kg/injection, schedule: Q01DX009 (ip), vehicle: saline",101 % of control
same,T/C,"endpoint: median survival time, dose: 400.0 mg/kg/injection, schedule: Q01DX009 (ip), vehicle: saline",109 % of control
O=P1(N(CCCl)CCCl)NCCCO1.[Cl][Sb]([Cl])[Cl] (stereo unspecified),T/C,"endpoint: mean survival time, dose: 31.25 mg/kg/injection, schedule: Q01DX001 (ip), vehicle: olive oil, sesame oil, peanut oil",109 % of control
same,T/C,"endpoint: mean survival time, dose: 62.5 mg/kg/injection, schedule: Q01DX001 (ip), vehicle: olive oil, sesame oil, peanut oil",113 % of control
same,T/C,"endpoint: mean survival time, dose: 125.0 mg/kg/injection, schedule: Q01DX001 (ip), vehicle: olive oil, sesame oil, peanut oil",109 % of control
C[N+](C)(C)Cc1ccccc1,T/C,"endpoint: mean survival time, dose: 3.13 mg/kg/injection, schedule: Q01DX009 (ip), vehicle: saline with Tween-80",97 % of control
same,T/C,"endpoint: mean survival time, dose: 6.25 mg/kg/injection, schedule: Q01DX009 (ip), vehicle: saline with Tween-80",97 % of control
same,T/C,"endpoint: mean survival time, dose: 12.5 mg/kg/injection, schedule: Q01DX009 (ip), vehicle: saline with Tween-80",95 % of control
same,T/C,"endpoint: mean survival time, dose: 12.5 mg/kg/injection, schedule: Q04DX003 (ip), vehicle: saline",104 % of control
